Converted amounts (≈) assume the structure as drawn. Like-named read-outs stand apart in the source and are kept apart here.
Columns and labels:
[1] = test system: bacteria; conditions: as described in the cited literature; cited from earlier work
[2] = Tolerability; conditions: at the effective concentration and at higher concentrations
[3] = Solubility; type: physicochemical
[4] = test system: Streptomyces murinus; assay: Agar diffusion test; type: cell-based; conditions: 16 h, S. murinus, 28° C., read-out: Zone of inhibition, diameter
Description: (§1) Agar plates were prepared with a 2 ml inoculum of Staphylococcus aureus in 200 ml of agar solution, a 2 ml inoculum of Escherichia coli in 200 ml of agar; a 2 ml inoculum of Candida albicans in 200 ml of agar solution; a 1 ml inoculum of Aspergillus niger in 200 ml of agar solution and a 3 ml inoculum of Streptomyces murinus in 200 ml of agar solution. The coniosetin was applied in a 10 mM solution to disks with a diameter of 6 mm and placed on the agar plate. The inoculated Staphylococcus, E. coli and Candida plates were incubated at 37° C. for 16 hours, the A. niger plate was incubated at 28° C. for 40 hours, and the Streptomyces plate was incubated at 28° C. for 16 hours. Zones of inhibition with the following diameters (mm) were then observed.

[5] = test system: Escherichia coli; assay: Agar diffusion test; type: cell-based; conditions: E. coli, 37° C., 16 hours
Description: as §1

[6] = test system: Staphylococcus aureus; assay: Agar diffusion test; type: cell-based; conditions: 16 h, S. aureus, 37° C., read-out: Zone of inhibition, diameter
Description: as §1

[7] = test system: Aspergillus niger; assay: Agar diffusion test; type: cell-based; conditions: for zone of inhibition at 10000 µM: 40 h, A. niger, 28° C., 40 hours, read-out: Zone of inhibition, diameter
Description: as §1

[8] = test system: Candida albicans; assay: Agar diffusion test; type: cell-based; conditions: for zone of inhibition at 10000 µM: 16 h, C. albicans, 37° C., 16 hours, read-out: Zone of inhibition, diameter
Description: as §1

[9] = test system: Enterococcus faecium; assay: MIC, serial dilution test; type: cell-based; conditions: teiR vanR eryR tetR
From the text: (§2) Table 1 summarizes the minimum inhibitory concentrations (MIC) of coniosetin by way of example.

[10] = test system: Enterococcus faecalis; assay: MIC, serial dilution test; type: cell-based
From the text: as §2

[11] = test system: Streptococcus gr. G; assay: MIC, serial dilution test; type: cell-based
From the text: as §2

[12] = test system: Escherichia coli; assay: MIC, serial dilution test; type: cell-based; conditions: 18 h
From the text: as §2

[13] = test system: S. epidermidis; assay: MIC, serial dilution test; type: cell-based; conditions: Staphylococcus epidermidis
From the text: as §2

[14] = test system: S. agalactiae; assay: MIC, serial dilution test; type: cell-based; conditions: Streptococcus agalactiae, ery R
From the text: as §2

[15] = test system: Staphylococcus aureus; assay: MIC, serial dilution test; type: cell-based
From the text: as §2

[16] = test system: S. mitis; assay: MIC, serial dilution test; type: cell-based; conditions: Streptococcus mitis
From the text: as §2

[17] = test system: S. pneumoniae; assay: MIC, serial dilution test; type: cell-based; conditions: Streptococcus pneumoniae
From the text: as §2

[18] = test system: S. sanguis; assay: MIC, serial dilution test; type: cell-based; conditions: ery R
From the text: as §2

[19] = test system: S. pyogenes; assay: MIC, serial dilution test; type: cell-based; conditions: Streptococcus pyogenes
From the text: as §2

[20] = Stability in solution; type: physicochemical
[21] = test system: bacteria; assay: Antibacterial effect, general statements; type: cell-based; conditions: general statement
[22] = 10 μl of 10 mM solution on 6 mm disk
[23] = 20 μl of 10 mM solution on 6 mm disk
[24] = 40 μl of 10 mM solution on 6 mm disk
[25] = compared with the antibacterial effect (Example 8)

harzianic acid
Antibacterial activity [1]: very low activity

CCCCCCC/C=C/C(=O)N1C(O)=C(C(C)=O)C(=O)[C@H]1CC(C)C [reutericyclin]
Antibacterial activity [1]: weak antibacterial activity

C/C=C/C=C/C1C(C)=CC2CC(C)CCC2C1(C)/C(O)=C1\C(=O)NC(C(C)O)C1=O (centres unmarked) [coniosetin]
Tolerability [2]: well-tolerated | Solubility in organic solvents ([3]; organic solvents of medium polarity and above): soluble | Solubility in water ([3]; water): low solubility | zone of inhibition at 10000 µM [4, 22]: 0 mm | zone of inhibition at 10000 µM [4, 23]: 9 mm | zone of inhibition at 10000 µM [4, 24]: 10 mm | Zone of inhibition, diameter [5, 23]: 0 mm | Zone of inhibition, diameter [5, 24]: 0 mm | zone of inhibition at 10000 µM ([5]; Escherichia coli, 10 μl of 10 mM solution on 6 mm disk, read-out: Zone of inhibition, diameter): 0 mm | zone of inhibition at 10000 µM [6, 22]: 13 mm | zone of inhibition at 10000 µM [6, 23]: 14.5 mm | zone of inhibition at 10000 µM [6, 24]: 15.5 mm | zone of inhibition at 10000 µM [7, 22]: 0 mm | zone of inhibition at 10000 µM [7, 23]: 0 mm | zone of inhibition at 10000 µM [7, 24]: 8 mm | Inhibitory effect on fungi [7, 25]: inhibitory effect—although weaker | zone of inhibition at 10000 µM [8, 22]: 9 mm | zone of inhibition at 10000 µM [8, 23]: 10 mm | zone of inhibition at 10000 µM [8, 24]: 10.5 mm | Inhibitory effect on yeasts [8, 25]: inhibitory effect—although weaker | MIC ([9]; 24 h): 1.2 µg/mL (≈ 2.9 µM) | MIC ([9]; 48 h): 2.5 µg/mL (≈ 6.05 µM) | MIC ([9]; after 18 h): 1.2 µg/mL (≈ 2.9 µM) | MIC ([10]; ery R, 24 h): 2.5 µg/mL (≈ 6.05 µM) | MIC ([10]; ery R, 48 h): 2.5 µg/mL (≈ 6.05 µM) | MIC ([10]; ery R, after 18 h): 2.5 µg/mL (≈ 6.05 µM) | MIC ([10]; ery S, 24 h, read-out: MIC): 2.5 µg/mL (≈ 6.05 µM) | MIC ([10]; ery S, 48 h, read-out: MIC): 2.5 µg/mL (≈ 6.05 µM) | MIC ([10]; ery S, after 18 h, read-out: MIC): 2.5 µg/mL (≈ 6.05 µM) | MIC ([11]; 18 h, ery R, after 18 h): 0.6 µg/mL (≈ 1.45 µM) | MIC ([11]; 18 h, ery S, after 18 h): 1.2 µg/mL (≈ 2.9 µM) | MIC ([11]; 24 h, ery R): 0.6 µg/mL (≈ 1.45 µM) | MIC ([11]; 24 h, ery S): 1.2 µg/mL (≈ 2.9 µM) | MIC ([11]; 48 h, ery R): 0.6 µg/mL (≈ 1.45 µM) | MIC ([11]; 48 h, ery S): 1.2 µg/mL (≈ 2.9 µM) | MIC [12]: > 40 µg/mL | MIC ([13]; 18 h, oxa R ery R, after 18 h): 0.6 µg/mL (≈ 1.45 µM) | MIC ([13]; 18 h, oxa S ery R, after 18 h): 0.3 µg/mL (≈ 0.725 µM) | MIC ([13]; 24 h, oxa R ery R): 1.2 µg/mL (≈ 2.9 µM) | MIC ([13]; 24 h, oxa S ery R): 0.3 µg/mL (≈ 0.725 µM) | MIC ([13]; 48 h, oxa R ery R): 1.2 µg/mL (≈ 2.9 µM) | MIC ([13]; 48 h, oxa S ery R): 0.3 µg/mL (≈ 0.725 µM) | MIC ([14]; 24 h): 2.5 µg/mL (≈ 6.05 µM) | MIC ([14]; 48 h): 2.5 µg/mL (≈ 6.05 µM) | MIC ([14]; after 18 h): 2.5 µg/mL (≈ 6.05 µM) | MIC ([15]; 18 h, S. aureus, oflR oxaR eryR tetR, after 18 h): 0.6 µg/mL (≈ 1.45 µM) | MIC ([15]; 18 h, S. aureus, oxa R ery R, after 18 h): 0.3 µg/mL (≈ 0.725 µM) | MIC ([15]; 18 h, S. aureus, oxa S ery R (first listed strain), after 18 h): 0.3 µg/mL (≈ 0.725 µM) | MIC ([15]; 18 h, S. aureus, oxa S ery R (second listed strain), after 18 h): 0.6 µg/mL (≈ 1.45 µM) | MIC ([15]; 18 h, S. aureus, oxaR eryR tetR, after 18 h): 0.3 µg/mL (≈ 0.725 µM) | MIC ([15]; 18 h, ery S, after 18 h): 0.3 µg/mL (≈ 0.725 µM) | MIC ([15]; 24 h, S. aureus, oflR oxaR eryR tetR): 0.6 µg/mL (≈ 1.45 µM) | MIC ([15]; 24 h, S. aureus, oxa R ery R): 0.3 µg/mL (≈ 0.725 µM) | MIC ([15]; 24 h, S. aureus, oxa S ery R (first listed strain)): 0.3 µg/mL (≈ 0.725 µM) | MIC ([15]; 24 h, S. aureus, oxa S ery R (second listed strain)): 0.6 µg/mL (≈ 1.45 µM) | MIC ([15]; 24 h, S. aureus, oxaR eryR tetR): 0.3 µg/mL (≈ 0.725 µM) | MIC ([15]; 24 h, ery S): 0.3 µg/mL (≈ 0.725 µM) | MIC ([15]; 48 h, S. aureus, oflR oxaR eryR tetR): 0.6 µg/mL (≈ 1.45 µM) | MIC ([15]; 48 h, S. aureus, oxa R ery R): 0.3 µg/mL (≈ 0.725 µM) | MIC ([15]; 48 h, S. aureus, oxa S ery R (first listed strain)): 0.3 µg/mL (≈ 0.725 µM) | MIC ([15]; 48 h, S. aureus, oxa S ery R (second listed strain)): 0.6 µg/mL (≈ 1.45 µM) | MIC ([15]; 48 h, S. aureus, oxaR eryR tetR): 0.3 µg/mL (≈ 0.725 µM) | MIC ([15]; 48 h, ery S): 0.6 µg/mL (≈ 1.45 µM) | MIC ([16]; 18 h, ery R, after 18 h): 2.5 µg/mL (≈ 6.05 µM) | MIC ([16]; 18 h, ery S, after 18 h): 1.2 µg/mL (≈ 2.9 µM) | MIC ([16]; 24 h, ery R): 2.5 µg/mL (≈ 6.05 µM) | MIC ([16]; 24 h, ery S): 2.5 µg/mL (≈ 6.05 µM) | MIC ([16]; 48 h, ery R): 2.5 µg/mL (≈ 6.05 µM) | MIC ([16]; 48 h, ery S): 2.5 µg/mL (≈ 6.05 µM) | MIC ([17]; 18 h, ery R (first listed strain), after 18 h): 0.6 µg/mL (≈ 1.45 µM) | MIC ([17]; 18 h, ery R (second listed strain), after 18 h): 0.6 µg/mL (≈ 1.45 µM) | MIC ([17]; 18 h, ery R (third listed strain), after 18 h): 0.6 µg/mL (≈ 1.45 µM) | MIC ([17]; 18 h, ery R pen R (first listed strain), after 18 h): 0.6 µg/mL (≈ 1.45 µM) | MIC ([17]; 18 h, ery R pen R (second listed strain), after 18 h): 0.6 µg/mL (≈ 1.45 µM) | MIC ([17]; 18 h, ery S pen R, after 18 h): 0.6 µg/mL (≈ 1.45 µM) | MIC ([17]; 18 h, ery S, after 18 h): 0.6 µg/mL (≈ 1.45 µM) | MIC ([17]; 24 h, ery R (first listed strain)): 0.6 µg/mL (≈ 1.45 µM) | MIC ([17]; 24 h, ery R (second listed strain)): 0.6 µg/mL (≈ 1.45 µM) | MIC ([17]; 24 h, ery R (third listed strain)): 0.6 µg/mL (≈ 1.45 µM) | MIC ([17]; 24 h, ery R pen R (first listed strain)): 0.6 µg/mL (≈ 1.45 µM) | MIC ([17]; 24 h, ery R pen R (second listed strain)): 0.6 µg/mL (≈ 1.45 µM) | MIC ([17]; 24 h, ery S): 0.6 µg/mL (≈ 1.45 µM) | MIC ([17]; 24 h, ery S pen R): 1.2 µg/mL (≈ 2.9 µM) | MIC ([17]; 48 h, ery R (first listed strain)): 0.6 µg/mL (≈ 1.45 µM) | MIC ([17]; 48 h, ery R (second listed strain)): 0.6 µg/mL (≈ 1.45 µM) | MIC ([17]; 48 h, ery R (third listed strain)): 1.2 µg/mL (≈ 2.9 µM) | MIC ([17]; 48 h, ery R pen R (first listed strain)): 0.6 µg/mL (≈ 1.45 µM) | MIC ([17]; 48 h, ery R pen R (second listed strain)): 0.6 µg/mL (≈ 1.45 µM) | MIC ([17]; 48 h, ery S): 0.6 µg/mL (≈ 1.45 µM) | MIC ([17]; 48 h, ery S pen R): 1.2 µg/mL (≈ 2.9 µM) | MIC ([18]; 24 h): 1.2 µg/mL (≈ 2.9 µM) | MIC ([18]; 48 h): 2.5 µg/mL (≈ 6.05 µM) | MIC ([18]; after 18 h): 1.2 µg/mL (≈ 2.9 µM) | MIC ([19]; 18 h, ery R, after 18 h): 1.2 µg/mL (≈ 2.9 µM) | MIC ([19]; 18 h, ery S, after 18 h): 0.6 µg/mL (≈ 1.45 µM) | MIC ([19]; 24 h, ery R): 1.2 µg/mL (≈ 2.9 µM) | MIC ([19]; 24 h, ery S): 1.2 µg/mL (≈ 2.9 µM) | MIC ([19]; 48 h, ery R): 1.2 µg/mL (≈ 2.9 µM) | MIC ([19]; 48 h, ery S): 1.2 µg/mL (≈ 2.9 µM) | Stability ([20]; neutral and weakly acidic media): Stable | Stability ([20]; strongly acidic and strongly alkaline solution): unstable | Antibacterial effect [21]: very good antibacterial activity

— patent US6599930B2, “Coniosetin and derivatives thereof, process for the preparation and the use thereof” (Aventis Pharma Deutschland GmbH, priority 2000, dated 2003)
